# Test results from patent US20060166900A1, “Salt of morphine-6-glucuronide” (CeNeS Limited, priority 2002, published 2006).
# Assays:
# Type in all cases: physicochemical
# [1] = Visual appearance on storage (Example 3)
# Method: (§1) Each test material was stored between 2-8*C prior to placing on stability. Each material was sub-divided into 900 mg aliquots, transferred to brown opaque HDPE plastic bottles and flushed with Argon prior to sealing. Sufficient samples were provided for each time point as well as spares for each storage condition. The samples were placed in appropriate incubators previously commissioned at storage conditions 25° C./60% RH, 40° C./75% RH and 60° C.
# The samples were stored for analysis according to the following table: […]
# [2] = Water content by Karl Fisher analysis on storage (Example 3)
# Method: Water content (% w/w) by Karl Fisher analysis
# as §1
# Water Content by Karl Fisher Analysis
# Water content was determined in duplicate on an aliquot of equilibrated material (approximately 100 mg) using a Tritrino 720 KFS Titrator.
# [3] = Colour of solution by visible spectrophotometry on storage (Example 3); conditions: 5% w/v solution in water
# Method: Colour of solution by UV spectrophotometry.
# as §1
# Colour by Visible Spectrophotometry
# A 5% w/v solution of test material was prepared in water and the absorbance measured at 420 nm in a 1 cm silica cell using a Unicam UV4 Visible/UV spectrophotometer.
# [4] = Stability indicating HPLC assay and related substances on storage (Example 3)
# Method: Assay (% w/w) and related substances determination
# as §1
# Testing Procedures Test for Identity Content and Impurities
# Testing was performed in duplicate (2×25 mg) in accordance with a stability indicating HPLC assay method. The assay results were reported as M6G as is, M6G as the anhydrous, solvent free material and the anhydrous solvent free material corrected for the salt form using the relevant conversion factor.
compound,measurement,setting,value
CN1CCC23c4c5ccc(O)c4OC2C(OC2OC(C(=O)O)C(O)C(O)C2O)C=CC3C1C5.CN1CCC23c4c5ccc(O)c4OC2C(OC2OC(C(=O)O)C(O)C(O)C2O)C=CC3C1C5.O=C(O)C=CC(=O)O (stereo not drawn) [Morphine-6-glucuronide fumarate],Appearance,"[1]; 1 month, 25° C./60% RH",White crystalline powder
same,Appearance,"[1]; 1 month, 40° C./75% RH",Pale yellow crystalline powder
same,Appearance,"[1]; 1 month, 60° C.",Yellow crystalline powder
same,Appearance,"[1]; 3 months, 25° C./60% RH",Pale yellow crystalline powder
same,Appearance,"[1]; 3 months, 40° C./75% RH",Yellow crystalline powder
same,Appearance,[1]; Initial,White crystalline powder
same,Moisture,"[2]; 1 month, 25° C./60% RH",7.26 % w/w
same,Moisture,"[2]; 1 month, 40° C./75% RH",7.94 % w/w
same,Moisture,"[2]; 1 month, 60° C.",5.98 % w/w
same,Moisture,"[2]; 3 months, 25° C./60% RH",8.00 % w/w
same,Moisture,"[2]; 3 months, 40° C./75% RH",10.89 % w/w
same,Moisture,[2]; Initial,6.80 % w/w
same,Colour,"[3]; 1 month, 25° C./60% RH",0.034 Abs@420 nm
same,Colour,"[3]; 1 month, 40° C./75% RH",0.264 Abs@420 nm
same,Colour,"[3]; 1 month, 60° C.",0.794 Abs@420 nm
same,Colour,"[3]; 3 months, 25° C./60% RH",0.141 Abs@420 nm
same,Colour,"[3]; 3 months, 40° C./75% RH",1.008 Abs@420 nm
same,Colour,[3]; Initial,0.016 Abs@420 nm
same,Known Related Substances HN33177,"[4]; 1 month, 25° C./60% RH",0.80%
same,Known Related Substances HN75083,"[4]; 1 month, 25° C./60% RH",0.03%
same,"M6G Assay, Anhydrous basis","[4]; 1 month, 25° C./60% RH",88.23 % w/w
same,"M6G Assay, As is basis","[4]; 1 month, 25° C./60% RH",81.96 % w/w
same,"M6G Assay, Corrected for the salt form","[4]; 1 month, 25° C./60% RH",99.32 % w/w
same,Total Known,"[4]; 1 month, 25° C./60% RH",0.83%
same,Total Related Substances,"[4]; 1 month, 25° C./60% RH",0.91%
same,Total Unknown,"[4]; 1 month, 25° C./60% RH",0.08%
same,Known Related Substances HN33177,"[4]; 1 month, 40° C./75% RH",0.70%
same,Known Related Substances HN67003,"[4]; 1 month, 40° C./75% RH",0.58%
same,Known Related Substances HN75076,"[4]; 1 month, 40° C./75% RH",0.03%
same,Known Related Substances HN75083,"[4]; 1 month, 40° C./75% RH",0.02%
same,Known Related Substances Morphine,"[4]; 1 month, 40° C./75% RH",0.10%
same,"M6G Assay, Anhydrous basis","[4]; 1 month, 40° C./75% RH",84.17 % w/w
same,"M6G Assay, As is basis","[4]; 1 month, 40° C./75% RH",77.62 % w/w
same,"M6G Assay, Corrected for the salt form","[4]; 1 month, 40° C./75% RH",94.76 % w/w
same,Total Known,"[4]; 1 month, 40° C./75% RH",1.43%
same,Total Related Substances,"[4]; 1 month, 40° C./75% RH",2.60%
same,Total Unknown,"[4]; 1 month, 40° C./75% RH",1.17%
same,Known Related Substances HN33177,"[4]; 1 month, 60° C.",0.62%
same,Known Related Substances HN67003,"[4]; 1 month, 60° C.",0.97%
same,Known Related Substances HN75076,"[4]; 1 month, 60° C.",0.06%
same,Known Related Substances HN75083,"[4]; 1 month, 60° C.",0.02%
same,Known Related Substances Morphine,"[4]; 1 month, 60° C.",0.24%
same,"M6G Assay, Anhydrous basis","[4]; 1 month, 60° C.",82.11 % w/w
same,"M6G Assay, As is basis","[4]; 1 month, 60° C.",77.33 % w/w
same,"M6G Assay, Corrected for the salt form","[4]; 1 month, 60° C.",92.44 % w/w
same,Total Known,"[4]; 1 month, 60° C.",1.91%
same,Total Related Substances,"[4]; 1 month, 60° C.",3.85%
same,Total Unknown,"[4]; 1 month, 60° C.",1.94%
same,Known Related Substances HN33177,"[4]; 3 months, 25° C./60% RH",0.75%
same,Known Related Substances HN67003,"[4]; 3 months, 25° C./60% RH",0.26%
same,Known Related Substances HN75083,"[4]; 3 months, 25° C./60% RH",0.10%
same,Known Related Substances Morphine,"[4]; 3 months, 25° C./60% RH",0.07%
same,"M6G Assay, Anhydrous basis","[4]; 3 months, 25° C./60% RH",87.15 % w/w
same,"M6G Assay, As is basis","[4]; 3 months, 25° C./60% RH",81.20 % w/w
same,"M6G Assay, Corrected for the salt form","[4]; 3 months, 25° C./60% RH",98.11 % w/w
same,Total Known,"[4]; 3 months, 25° C./60% RH",1.18%
same,Total Related Substances,"[4]; 3 months, 25° C./60% RH",1.90%
same,Total Unknown,"[4]; 3 months, 25° C./60% RH",0.72%
same,Known Related Substances HN33177,"[4]; 3 months, 40° C./75% RH",0.57%
same,Known Related Substances HN67003,"[4]; 3 months, 40° C./75% RH",1.56%
same,Known Related Substances HN75076,"[4]; 3 months, 40° C./75% RH",0.40%
same,Known Related Substances Morphine,"[4]; 3 months, 40° C./75% RH",0.45%
same,"M6G Assay, Anhydrous basis","[4]; 3 months, 40° C./75% RH",79.38 % w/w
same,"M6G Assay, As is basis","[4]; 3 months, 40° C./75% RH",71.64 % w/w
same,"M6G Assay, Corrected for the salt form","[4]; 3 months, 40° C./75% RH",89.37 % w/w
same,Total Known,"[4]; 3 months, 40° C./75% RH",2.98%
same,Total Related Substances,"[4]; 3 months, 40° C./75% RH",9.07%
same,Total Unknown,"[4]; 3 months, 40° C./75% RH",6.09%
same,drop in assay compared to the initial values,"[4]; 3 months, 40° C./75% RH",around 10%
same,Known Related Substances HN33177,[4]; Initial,0.77%
same,Known Related Substances HN67003,[4]; Initial,0.04%
same,Known Related Substances HN75083,[4]; Initial,0.05%
same,"M6G Assay, Anhydrous basis",[4]; Initial,89.44 % w/w
same,"M6G Assay, As is basis",[4]; Initial,84.11 % w/w
same,"M6G Assay, Corrected for the salt form",[4]; Initial,100.71 % w/w
same,Total Known,[4]; Initial,0.86%
same,Total Related Substances,[4]; Initial,0.95%
same,Total Unknown,[4]; Initial,0.09%
